Like-named read-outs stand apart in the source and are kept apart here.
Molecular target: T1, human (h) TRPV3 (Homo sapiens, UniProt Q8NET8)
T1 construct: expressed in transfected cells; host or cells: HEK293/TREx, tetracycline-induced
T1 sequence (Q8NET8 1-790): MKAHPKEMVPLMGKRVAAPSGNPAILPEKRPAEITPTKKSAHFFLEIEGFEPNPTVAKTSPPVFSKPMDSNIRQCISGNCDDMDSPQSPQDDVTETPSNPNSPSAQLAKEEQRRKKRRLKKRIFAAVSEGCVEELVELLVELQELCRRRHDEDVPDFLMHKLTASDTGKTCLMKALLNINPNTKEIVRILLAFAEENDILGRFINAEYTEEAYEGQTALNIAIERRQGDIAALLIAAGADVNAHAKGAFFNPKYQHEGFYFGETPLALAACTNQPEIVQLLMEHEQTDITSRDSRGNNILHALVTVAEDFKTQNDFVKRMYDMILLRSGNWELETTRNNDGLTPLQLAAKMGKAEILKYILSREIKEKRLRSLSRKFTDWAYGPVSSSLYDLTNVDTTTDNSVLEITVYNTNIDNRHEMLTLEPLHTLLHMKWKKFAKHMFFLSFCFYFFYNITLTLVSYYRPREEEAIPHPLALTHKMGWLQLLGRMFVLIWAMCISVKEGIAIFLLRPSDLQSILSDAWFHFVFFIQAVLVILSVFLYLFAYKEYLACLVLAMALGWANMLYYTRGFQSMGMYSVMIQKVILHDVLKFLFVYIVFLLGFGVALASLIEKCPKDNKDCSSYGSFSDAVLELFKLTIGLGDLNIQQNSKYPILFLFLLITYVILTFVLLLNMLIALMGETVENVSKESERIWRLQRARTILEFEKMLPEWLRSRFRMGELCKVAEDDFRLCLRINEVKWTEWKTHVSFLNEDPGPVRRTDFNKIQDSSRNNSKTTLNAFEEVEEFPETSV
Assay: Whole-cell patch clamp, human TRPV3-mediated currents;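 note: compounds tested at concentrations up to 30 µM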
Format: cell-based
Source text: Whole-cell patch clamp experiments permit the detection of currents through the TRPV3 channel in the cell line described above. A glass electrode is brought into contact with a single cell and the membrane is then ruptured, permitting control of the voltage of the cell membrane and measurement of currents flowing across the membrane using the amplifier attached to the electrode. A perfusion system permits control of the extracellular solution, including the addition of blockers and activators of the current. The current can be activated by heating this solution to 28° C. or warmer or by addition of 20 μM 2-APB to the solution.
TRPV3 cells were induced 20-48 hours, removed from growth plates, and replated at low density (to attain good single-cell physical separation) on glass coverslips for measurement. In some cases, cells were grown in low density overnight on glass coverslips. Patch clamp recordings were made in the whole-cell mode with a holding potential of −40 mV. Every 5 seconds, a voltage ramp was applied from −120 to +100 mV, 400 ms in duration. Currents elicited were quantified at −80 mV and +80 mV. The internal solution consisted of 140 mM cesium aspartate, 10 mM EGTA, 2.27 mM MgCl2, 1.91 mM CaCl2 and 10 mM HEPES, pH to 7.2 with KOH; with 50 nM calculated free Ca^2+. External solution was Ringer's solution described above. Upon addition of 2-APB or upon heating of the extracellular solution as described above, TRPV3 current was induced only in TRPV3-expressing cells and not in parental HEK293 TREx cells. […] Removal of the stimulus caused most of the current to go away, and inhibitor addition could still inhibit this current. […]
P1 refers to the Phase 1 current for human (h) and rat (r) TRPV3, and P2 refers to the Phase 2 current for human (h) and rat (r) TRPV3.

[1] = Phase 1 inward current, read-out: P1 In (h)
[2] = Phase 1 outward current, read-out: P1 Out (h)
[3] = Phase 2 inward current, read-out: P2 In (h)
[4] = Phase 2 outward current, read-out: P2 Out (h)

SMILES	IC50 [1] [µM]	IC50 [2] [µM]	IC50 [3] [µM]	IC50 [4] [µM]
COc1ccccc1-n1c(/C=C/c2cccc(OC)c2O)nc2ccccc2c1=O [Compound 52]	≤ 0.5	≤ 0.5	≤ 0.5	≤ 0.5
COc1cccc(/C=C/c2nc3ccccc3c(=O)n2-c2c(C)cc(OCCO)cc2C)c1O [Compound 1]	≤ 1		≤ 1	
COc1ccnc(/C=C/c2nc3ccccc3c(=O)n2-c2c(C)cccc2C)c1O [Compound 39]	≤ 10	≤ 10	≤ 10	≤ 10
COc1ccccc1-n1c(/C=C/c2cccc(OC)c2O)nc2cnccc2c1=O [Compound 13]	≤ 10	≤ 10		
COc1cccc(NC(=O)Nc2nc3ccccc3c(=O)n2-c2c(C)cccc2C)c1O [Compound 46]	≤ 5	≤ 5		
COc1cccc(-n2c(/C=C/c3cccc(OC)c3O)nc3ccccc3c2=O)c1 [Compound 54]	≤ 0.5	≤ 0.5	≤ 0.5	≤ 0.5
COc1cccc(-n2c(/C=C/c3cccc(OC)c3O)nc3cnccc3c2=O)c1C [Compound 17]	≤ 10	≤ 10	≤ 10	≤ 10
Cc1ccccc1-n1c(-c2ccoc2)nc2ccccc2c1=O [Compound 4]	≤ 10		≤ 10	
CCOc1cccc(/C=C/c2nc3cnccc3c(=O)n2-c2c(F)cccc2F)c1O [Compound 18]	≤ 0.5	≤ 0.5	≤ 0.5	≤ 10
COc1cccc(C=Cc2nc3ccccc3c(=O)n2-c2c(C)cccc2C)c1OP(=O)(O)O [Compound 53]	≤ 0.5	≤ 0.5	≤ 0.5	≤ 0.5
COc1cccc(/C=C/c2nc3cnccc3c(=O)n2-c2ccccc2C#N)c1O [Compound 25]	≤ 10	≤ 5		
Cc1ccccc1-n1c(/C=C/c2nnn[nH]2)nc2ccccc2c1=O [Compound 5]	> 10		> 10	
COc1cccc(/C=C/c2nc3ccccc3c(=O)n2-c2c(C)cccc2OCCO)c1O [Compound 48]	≤ 0.5	≤ 1		≤ 1
COc1cccc(/C=C/c2nc3ccccc3c(=O)n2-c2c(C)cc(OCCN(C)C)cc2C)c1O [Compound 3]	≤ 10		≤ 5	
COc1cccc(/C=C(\C)c2nc3ccccc3c(=O)n2-c2ccccc2C)c1O [Compound 2]	≤ 5		≤ 5	

Further lines, with some results ahead:

IC50 [1] [µM]	IC50 [2] [µM]	SMILES	IC50 [3] [µM]	IC50 [4] [µM]
≤ 10	≤ 10	Cc1cccc(C)c1-n1c(/C=C/c2cc(OC(F)(F)F)ccc2O)nc2cnccc2c1=O [Compound 21]		
≤ 10	≤ 10	Cc1cccc(C)c1-n1c(/C=C/c2cccc3cn[nH]c23)nc2cnccc2c1=O [Compound 10]		
≤ 10	≤ 5	COc1cc(/C=C/c2nc3cnccc3c(=O)n2-c2c(C)cccc2C)ccn1 [Compound 26]		
≤ 5	≤ 10	Cc1cccc(C)c1-n1c(/C=C/c2cc(Cl)ccc2O)nc2cnccc2c1=O [Compound 20]		
≤ 10	≤ 10	Cc1cccc(C)c1-n1c(/C=C/c2cnccc2O)nc2cnccc2c1=O [Compound 29]		
≤ 10	≤ 10	Cc1cccc(C)c1-n1c(/C=C/c2cc(Cl)cnc2O)nc2cnccc2c1=O [Compound 22]		
≤ 10	≤ 10	Cc1ccc(O)c(/C=C/c2nc3cnccc3c(=O)n2-c2c(C)cccc2C)n1 [Compound 23]		
≤ 10	≤ 10	COc1cccc(/C=C/c2nc3cnccc3c(=O)n2-c2c(C)cccc2C)n1 [Compound 24]		
